Source: US8227464B2, “Substituted oxazolidinone derivatives” (Concert Pharmaceuticals, Inc., priority 2007, dated 2012)
Read-outs that look alike come from different tables or passages of the source. Values belong to the molecule of their own block, whether it stands above or below them.

Columns and labels:
[1] = Pharmacokinetics in male Sprague Dawley rats following oral co-dosing; assay type: in vivo
Description: Separate solutions of rivaroxaban and Compound 101 were prepared using 20% ethanol, 60% PEG400, 20% dimethyl isosorbide to provide a concentration of 10 mg/mL. The concentration of each solution was confirmed by HPLC prior to further use. A combination dose of rivaroxaban and Compound 101 was prepared by mixing the two solutions in a 1.09:1 ratio to yield a final concentration of 5.45 mg/mL of rivaroxaban and 5 mg/mL for Compound 101.
Two male Sprague Dawley rats were dosed by oral gavage with the combination dose containing rivaroxaban (5.45 mg/kg) and compound 101 (5 mg/kg). Blood samples (approximately 0.25 mL) were collected retro-orbitally following oral administration at 0 minutes (min) (pre-dose), 5 min, 15 min, 30 min, 1 hr, 1.5 hr, 2 hr, 4 hr, 6 hr, 8 hr, 10 hr and 24 hr post-dose. Blood samples were stored on ice and centrifuged within 15 minutes of collection to harvest plasma. The plasma was decanted immediately and frozen at −20° C. until analysis.
Analyses of plasma samples were performed using a high performance liquid chromatography/mass spectrometry (HPLC/MS/MS) method. The LC system comprised an Agilent (Agilent Technologies Inc. USA) liquid chromatograph equipped with an isocratic pump (1100 series), an autosampler (1100 series) and a degasser (1100 series). Mass spectrometric analysis was performed using an API3000 (triple-quadrupole) instrument from AB Inc (Canada) with an ESI interface. The data acquisition and control system were created using Analyst 1.4 software from ABI Inc. Data for rivaroxaban was corrected by multiplying by a factor of 0.91 to compensate for the 9% increased amount administered as compared to Compound 101.

[2] = major in vivo metabolites of rivaroxaban; Weinz et al. 2004; cited from earlier work
[3] = use of rivaroxaban; Kubitza et al. 2005; cited from earlier work
[4] = male Sprague Dawley rats, oral gavage co-dose: rivaroxaban 5.45 mg/kg (data multiplied by 0.91) and Compound 101 5 mg/kg, plasma

AUC∞ [1, 4]: 3424.33 ng·h/mL | Cmax [1, 4]: 962 ng/mL | increase in AUC as compared to rivaroxaban ([1]; rats, oral co-dosing): greater than 16% | increase in Cmax as compared to rivaroxaban ([1]; rats, oral co-dosing): greater than 14%
Compound: [2H]C1([2H])OC([2H])([2H])C([2H])([2H])N(c2ccc(N3C[C@H](CNC(=O)c4ccc(Cl)s4)OC3=O)cc2)C1=O [Compound 101, (S)-5-chloro-N-((2-oxo-3-(4-(3-oxo-2,2,5,5,6,6-d6-morpholino)phenyl)oxazolidin-5-yl)methyl)thiophene-2-carboxamide]

Compound: O=C(O)CNC(=O)c1ccc(Cl)s1 [Compound M4]
activity of metabolite [2]: Neither metabolite is active

AUC(0-inf) ([1]; rat, male Sprague Dawley rats, oral gavage co-dose: rivaroxaban 5.45 mg/kg (data multiplied by 0.91) and Compound 101 5 mg/kg, plasma): 2930 ng·h/mL | Cmax ([1]; rat, male Sprague Dawley rats, oral gavage co-dose: rivaroxaban 5.45 mg/kg (data multiplied by 0.91) and Compound 101 5 mg/kg, plasma, read-out: Cmax): 842 ng/mL
Compound: O=C(NC[C@H]1CN(c2ccc(N3CCOCC3=O)cc2)C(=O)O1)c1ccc(Cl)s1 [Rivaroxaban, 5-chloro-N-[2-oxo-3-[4-(3-oxomorpholin-4-yl)phenyl]oxazolidin-5(S)-ylmethyl]thiophene-2-carboxamide, reference compound]
adverse events [3]: ageusia (loss of taste), ecchymosis (bruising) and headache
